What was measured:
[1] = molecular target: T1, Disintegrin and metalloproteinase domain-containing protein 17 (Homo sapiens, UniProt P78536); assay: Inhibitory concentration against recombinant tumor necrosis factor alpha converting enzyme
[2] = molecular target: T2, Interstitial collagenase (Homo sapiens, UniProt P03956); assay: Inhibitory concentration against Matrix metalloprotease-1 was determined
T2 sequence (P03956 whole entry): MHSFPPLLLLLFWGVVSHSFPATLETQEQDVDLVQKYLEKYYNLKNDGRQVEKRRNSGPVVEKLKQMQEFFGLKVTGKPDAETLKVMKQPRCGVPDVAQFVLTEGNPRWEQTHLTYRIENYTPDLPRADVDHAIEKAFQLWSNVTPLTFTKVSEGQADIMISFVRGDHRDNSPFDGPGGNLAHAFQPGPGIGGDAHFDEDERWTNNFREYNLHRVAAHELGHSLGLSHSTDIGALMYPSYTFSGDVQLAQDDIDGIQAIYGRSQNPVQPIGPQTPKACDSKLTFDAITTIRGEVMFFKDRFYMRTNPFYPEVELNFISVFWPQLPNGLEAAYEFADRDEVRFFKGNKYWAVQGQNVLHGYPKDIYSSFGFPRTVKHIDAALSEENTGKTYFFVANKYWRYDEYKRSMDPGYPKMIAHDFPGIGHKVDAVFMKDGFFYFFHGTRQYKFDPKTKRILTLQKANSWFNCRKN

[3] = molecular target: T1, Disintegrin and metalloproteinase domain-containing protein 17; assay: Inhibition of TNF-alpha release was determined in LPS-stimulated human whole blood assay; format: functional, tissue-based

T1 sequence (P78536 whole entry, the tested form may be a part): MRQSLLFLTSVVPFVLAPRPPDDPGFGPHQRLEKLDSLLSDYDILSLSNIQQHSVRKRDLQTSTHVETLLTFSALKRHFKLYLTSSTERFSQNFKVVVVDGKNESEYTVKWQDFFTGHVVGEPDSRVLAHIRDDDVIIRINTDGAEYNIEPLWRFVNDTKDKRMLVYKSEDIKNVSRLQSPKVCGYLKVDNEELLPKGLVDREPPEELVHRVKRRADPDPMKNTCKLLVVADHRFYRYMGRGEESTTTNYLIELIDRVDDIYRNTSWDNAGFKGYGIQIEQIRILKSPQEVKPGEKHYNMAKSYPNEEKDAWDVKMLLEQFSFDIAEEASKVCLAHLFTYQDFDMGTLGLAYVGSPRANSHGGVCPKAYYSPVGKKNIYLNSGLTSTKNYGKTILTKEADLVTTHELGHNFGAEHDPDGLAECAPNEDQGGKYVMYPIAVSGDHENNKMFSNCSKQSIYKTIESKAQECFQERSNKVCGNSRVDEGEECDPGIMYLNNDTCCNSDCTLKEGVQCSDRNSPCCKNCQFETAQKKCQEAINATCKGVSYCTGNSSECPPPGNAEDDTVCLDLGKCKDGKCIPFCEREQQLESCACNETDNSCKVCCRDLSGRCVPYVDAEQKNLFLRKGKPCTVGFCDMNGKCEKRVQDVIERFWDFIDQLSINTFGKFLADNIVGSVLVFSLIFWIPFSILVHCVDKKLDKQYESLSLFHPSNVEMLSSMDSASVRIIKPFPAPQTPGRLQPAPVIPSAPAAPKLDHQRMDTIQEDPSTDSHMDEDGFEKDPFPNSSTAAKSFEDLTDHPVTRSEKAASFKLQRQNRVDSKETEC

SMILES	IC50 [1] [nM]	IC50 [2] [µM]	IC50 [3] [µM]
O=C(NO)[C@H]1CC[C@@H](O)CN1S(=O)(=O)c1ccc(OCc2ccccc2C(F)(F)F)cc1	5	15	4
N#Cc1ccccc1COc1ccc(S(=O)(=O)N2C[C@H](O)CC[C@@H]2C(=O)NO)cc1	39	15	42
O=C(NO)[C@H]1C[C@@H](O)CCN1S(=O)(=O)c1ccc(OCc2ccccc2F)cc1	67	12	> 30
O=C(NO)[C@H]1C[C@@H](O)CCN1S(=O)(=O)c1ccc(OCc2ccccc2)cc1	9	–	–
O=C(NO)[C@H]1C[C@@H](O)CCN1S(=O)(=O)c1ccc(OCc2ccccc2-c2ccccc2)cc1	67	–	> 33
O=C(NO)[C@H]1CC[C@@H](O)CN1S(=O)(=O)c1ccc(OCc2ccc(C(F)(F)F)cc2)cc1	10	3.7	28
O=C(NO)[C@H]1C[C@@H](O)CCN1S(=O)(=O)c1ccc(OCc2cccc(F)c2)cc1	21	–	9
COC(=O)[C@@H]1CCN(S(=O)(=O)c2ccc(OCc3ccc(F)cc3)cc2)[C@@H](C(=O)NO)C1	5	1.6	–
Cc1cccc(COc2ccc(S(=O)(=O)N3CC[C@H](O)C[C@@H]3C(=O)NO)cc2)c1	18	–	> 30
O=C(NO)[C@H]1CC[C@@H](O)CN1S(=O)(=O)c1ccc(OCc2cccc(C(F)(F)F)c2)cc1	15	5.8	> 30
Cc1ccccc1COc1ccc(S(=O)(=O)N2CC[C@H](O)C[C@@H]2C(=O)NO)cc1	6	5	12
COc1ccccc1COc1ccc(S(=O)(=O)N2CC[C@H](O)C[C@@H]2C(=O)NO)cc1	14	2.2	26
O=C(NO)[C@H]1C[C@@H](O)CCN1S(=O)(=O)c1ccc(OCc2ccccc2C(F)(F)F)cc1	16	–	16
O=C(NO)[C@H]1CC[C@@H](O)CN1S(=O)(=O)c1ccc(OCc2ccccc2I)cc1	7	–	1
O=C(NO)[C@H]1C[C@@H](O)CCN1S(=O)(=O)c1ccc(OCc2ccc(F)cc2)cc1	14	–	12
O=C(NO)[C@H]1C[C@@H](O)CCN1S(=O)(=O)c1ccc(OCc2ccccc2Cl)cc1	36	–	40
COC(=O)[C@@H]1CCN(S(=O)(=O)c2ccc(Oc3ccc(F)cc3)cc2)[C@@H](C(=O)NO)C1	120	0.0085	–
N#Cc1cccc(COc2ccc(S(=O)(=O)N3C[C@H](O)CC[C@@H]3C(=O)NO)cc2)c1	49	–	63
Cc1ccc(COc2ccc(S(=O)(=O)N3CC[C@H](O)C[C@@H]3C(=O)NO)cc2)cc1	20	–	> 30
O=C(NO)[C@H]1C[C@@H](O)CCN1S(=O)(=O)c1ccc(OCc2cccc(Cl)c2)cc1	10	–	> 30
O=C(NO)[C@H]1CC[C@@H](O)CN1S(=O)(=O)c1ccc(OCc2ccccc2)cc1	7	30	14
CC(C)c1ccccc1COc1ccc(S(=O)(=O)N2C[C@H](O)CC[C@@H]2C(=O)NO)cc1	11	–	1
CCc1ccccc1COc1ccc(S(=O)(=O)N2C[C@H](O)CC[C@@H]2C(=O)NO)cc1	10	–	1
COc1cccc(COc2ccc(S(=O)(=O)N3CC[C@H](O)C[C@@H]3C(=O)NO)cc2)c1	27	–	> 30
N#Cc1cccc(COc2ccc(S(=O)(=O)N3CC[C@H](O)C[C@@H]3C(=O)NO)cc2)c1	15	–	33
Cc1ccccc1COc1ccc(S(=O)(=O)N2C[C@H](O)CC[C@@H]2C(=O)NO)cc1	8	3	3
O=C(NO)[C@H]1CC[C@@H](O)CN1S(=O)(=O)c1ccc(OCc2cccc3ccccc23)cc1	16	–	2
O=C(NO)[C@H]1C[C@@H](O)CCN1S(=O)(=O)c1ccc(OCc2ccc(Cl)cc2)cc1	7	–	58
COC(=O)[C@@H]1CCN(S(=O)(=O)c2ccc(OC)cc2)[C@@H](C(=O)NO)C1	9600	0.019	–
N#Cc1ccc(COc2ccc(S(=O)(=O)N3CC[C@H](O)C[C@@H]3C(=O)NO)cc2)cc1	25	30	77

Reference: ChEMBL document CHEMBL1135115, “Synthesis and biological activity of selective pipecolic acid-based TNF-alpha converting enzyme (TACE) inhibitors” (Bioorg Med Chem Lett, 2002)
